Source: US9802899B2, “Heterocyclic compounds as pesticides” (BAYER CROPSCIENCE AG, priority 2012, dated 2017)

Assay: Determination of the log P values by HPLC (formic acid method)
Format: physicochemical
Details: reversed-phase HPLC column (C 18), reversed-phase column (C 18), acidic range (pH 3.4), 55° C.
Method: 1) Description of Method for Determination of the Log P Values (Formic Acid Method)
Eluents for determination in the acidic range (pH 3.4):
Eluent A: acetonitrile+1 ml of formic acid/liter. Eluent B: water+0.9 ml of formic acid/liter.
The lambda max values were determined in the maxima of the chromatographic signals using the UV spectra from 200 nm to 400 nm.

| chromatographic logP | Compound |
| --- | --- |
| 2.32 | Nc1cc(F)c(-n2ccc(NC(=O)c3ccccc3C(F)(F)F)n2)c(F)c1 [Compound I-1-227, N-[1-(4-Amino-2,6-difluorophenyl)-1H-pyrazol-3-yl]-2-(trifluoromethyl)benzamide] |
| 2.7 | O=C(Nc1nn(-c2ccccc2Cl)cc1F)c1ccccc1Cl [Compound I-1-27, 2-Chloro-N-[1-(2-chlorophenyl)-4-fluoro-1H-pyrazol-3-yl]benzamide] |
| 1.47 | Nc1ccn(-c2c(Cl)cccc2Cl)n1 [1-(2,6-Dichlorophenyl)-1H-pyrazole-3-amine] |
| 3.99 | N#Cc1c(C(F)(F)F)cc(C2CC2)nc1-n1ccc(NC(=O)c2ccccc2C(F)(F)F)n1 [Compound I-1-570, N-{1-[3-Cyano-6-cyclopropyl-4-(trifluoromethyl)pyridin-2-yl]-1H-pyrazol-3-yl}-2-(trifluoromethyl)benzamide] |
| 2.62 | O=C(Nc1ccn(-c2ncnc(F)c2F)n1)c1ccccc1C(F)(F)F [Compound I-1-169, N-[1-(5,6-Difluoropyrimidin-4-yl)-1H-pyrazol-3-yl]-2-(trifluoromethyl)benzamide] |
| 1.15 | Nc1ccn(-c2cc(F)cnc2F)n1 [1-(2,5-difluoropyridin-3-yl)-1H-pyrazole-3-amine] |
| 0.49 | Nc1ccn(-c2nccnc2F)n1 [1-(3-Fluoropyrazin-2-yl)-1H-pyrazole-3-amine] |
| 1.85 | O=C(O)c1ccccc1C(=O)Nc1ccn(-c2c(F)cc([N+](=O)[O-])cc2F)n1 [2-{[1-(2,6-Difluoro-4-nitrophenyl)-1H-pyrazol-3-yl]carbamoyl}benzoic acid] |

Same assay, conditions: reversed-phase column (C 18), acidic range (pH 3.4), 55° C.

| Compound | log P | chromatographic logP |
| --- | --- | --- |
| O=C(Nc1ccn(-c2c(Cl)cccc2Cl)n1)c1cccnc1C(F)(F)F [Compound I-1-124] | 2.57 | – |
| CS(=O)(=O)c1ccccc1-n1ccc(NC(=O)c2cccnc2C(F)(F)F)n1 [Compound I-1-180] | 2.00 | – |
| O=C(Nc1ccn(-c2c(F)cccc2F)n1)c1ccccc1O [Compound I-1-87] | 2.66 | – |
| O=C(Nc1ccn(-c2c(F)cccc2F)n1)c1cccnc1CC(F)(F)F [Compound I-1-246] | 2.35 | – |
| O=C(Nc1ccn(-c2ncc(F)cc2F)n1)c1cncnc1C(F)(F)F [Compound I-1-154] | 2.00 | – |
| Cc1cc(NC(=O)c2cccnc2C(F)(F)F)nn1-c1ccc(F)cc1F [Compound I-1-203] | 3.19 | – |
| Cc1cc(NC(=O)c2ccccc2I)nn1-c1ccc(F)cc1F [Compound I-1-214] | 3.73 | – |
| CCN(C(=O)c1ccccc1C(F)(F)F)c1ccn(-c2c(F)cccc2F)n1 [Compound I-1-254] | 3.31 | – |
| O=C(Nc1ccn(-c2c(F)cccc2F)n1)c1ccc(F)cc1C(F)(F)F [Compound I-1-322] | 2.80 | – |
| O=C(Nc1ccn(-c2ncc(F)cc2F)n1)C1=C(C(F)(F)F)OCCS1 [Compound I-1-155] | 2.35 | – |
| O=C(Nc1ccn(-c2c(Cl)cccc2Cl)n1)c1cccnc1OC(F)(F)F [Compound I-1-226] | 3.21 | – |
| O=C(Nc1ccn(-c2ncc(F)cc2F)n1)c1snc(Cl)c1Cl [Compound I-1-159] | 3.06 | – |
| Cc1nn(C)c(C(=O)Nc2ccn(-c3c(F)cccc3F)n2)c1Br [Compound I-1-298] | 2.76 | – |
| O=C(Nc1ccn(-c2ccccc2Cl)n1)c1ccccc1F [Compound I-1-19] | 2.89 | – |
| Nc1ccn(-c2ncc(F)cc2F)n1 [1-(3,5-Difluoropyridin-2-yl)-1H-pyrazole-3-amine] | – | 0.81 |
| Cn1nc(C(F)(F)F)c(C#N)c1C(=O)Nc1ccn(-c2c(F)cccc2F)n1 [Compound I-1-318] | 2.98 | – |
| O=C(Nc1ccn(-c2c(F)cccc2F)n1)C1=C(C(F)(F)F)OCCS1 [Compound I-1-102] | 2.56 | – |
| O=C(Nc1ccn(-c2nccnc2F)n1)c1c(F)cccc1F [Compound I-1-177] | 1.94 | – |
| O=C(c1ccccc1C(F)(F)F)N(CC(F)F)c1ccn(-c2c(F)cccc2F)n1 [Compound I-1-264] | 3.38 | – |
| O=C(Nc1ccn(-c2nc(F)c(F)cc2F)n1)c1ncccc1C(F)(F)F [Compound I-1-167] | 3.88 | – |
| O=C(Nc1ccn(-c2cc(F)ccc2F)n1)c1cccnc1C(F)(F)F [Compound I-1-70] | 2.60 | – |
| CS(=O)(=O)c1ccccc1-n1ccc(NC(=O)c2ccccc2Cl)n1 [Compound I-1-126] | 1.96 | – |
| Cc1c([N+](=O)[O-])c(C(=O)Nc2ccn(-c3c(F)cccc3F)n2)nn1C [Compound I-1-234] | 2.03 | – |
| O=C(Nc1ccn(-c2c(F)cccc2F)n1)c1cccnc1Cl [Compound I-1-95] | 1.96 | – |
| CCn1ncc(Cl)c1C(=O)Nc1ccn(-c2c(F)cccc2F)n1 [Compound I-1-308] | 2.61 | – |

Continued, in another order:

| log P | Compound | chromatographic logP |
| --- | --- | --- |
| 2.68 | N#Cc1c(F)cccc1-n1ccc(NC(=O)c2c(F)cccc2C(F)(F)F)n1 [Compound I-1-623] | – |
| 2.70 | COc1ccccc1-n1ccc(NC(=O)c2ccccc2Cl)n1 [Compound I-1-410] | – |
| 4.47 | O=C(c1cccc(Cl)c1Cl)N(C(=O)c1cccc(Cl)c1Cl)c1ccn(-c2ncc(F)cc2F)n1 [Compound I-1-477] | – |
| 2.98 | O=C(Nc1ccn(-c2ncc(F)cc2F)n1)c1c(C(F)(F)F)cc(F)c(F)c1F [Compound I-1-516] | – |
| 2.24 | Cc1cnoc1C(=O)Nc1ccn(-c2c(F)cccc2F)n1 [Compound I-1-327] | – |
| 1.83 | Cc1c([N+](=O)[O-])c(C(=O)Nc2ccn(-c3ncc(F)cc3F)n2)nn1C [Compound I-1-448] | – |
| 2.99 | Cc1cn(-c2ccccc2Cl)nc1NC(=O)c1ccccc1I [Compound I-1-365] | – |
| 2.38 | O=C(Nc1ccn(-c2ncc(F)cc2F)n1)c1ncccc1C(F)(F)F [Compound I-1-502] | – |
| 2.45 | O=C(Nc1ccn(-c2ncc(F)cc2F)n1)c1snnc1C1CC1 [Compound I-1-537] | – |
| 2.43 | O=C(Nc1cnn(-c2ncccc2Br)n1)c1ccccc1I [Compound I-2-18] | – |
| 3.02 | O=C(Nc1cnn(-c2ccc(C(F)(F)F)cn2)n1)c1ccccc1C(F)(F)F [Compound I-2-42] | – |
| 2.38 | Cc1ccsc1C(=O)Nc1ccn(-c2ncc(F)cc2F)n1 [Compound I-1-510] | – |
| 1.80 | CC1=C(C(=O)Nc2ccn(-c3c(F)cccc3F)n2)S(=O)(=O)CCO1 [Compound I-1-616] | – |
| 4.87 | O=C(c1ccccc1C(F)(F)F)N(C(=O)c1ccccc1C(F)(F)F)c1nn(-c2ccccc2Br)nc1Cl [Compound I-2-27] | – |
| 2.53 | N#Cc1cn(-c2ccccc2Cl)nc1NC(=O)c1ccccc1C(F)(F)F [Compound I-1-346] | – |
| 2.76 | Cn1nc(C(F)(F)F)c(C#N)c1C(=O)Nc1ccn(-c2ncc(F)cc2F)n1 [Compound I-1-536] | – |
| 2.37 | O=C(NC1=NN(c2ccccc2Cl)CC1)c1ccccc1Br [Compound I-4-8] | – |
| 3.21 | CCOc1c(Cl)cccc1-n1ccc(NC(=O)c2cccnc2C(F)(F)F)n1 [Compound I-1-395] | – |
| 2.72 | N#Cc1c(F)cccc1-n1ccc(NC(=O)c2ccccc2C(F)(F)F)n1 [Compound I-1-617] | – |
| 3.31 | O=C(Nc1ccn(-c2cccc(Cl)c2F)n1)c1ccccc1Br [Compound I-1-557] | – |
| 2.59 | O=C(Nc1cnn(-c2c(F)cccc2F)n1)c1c(F)cccc1F [Compound I-2-77] | – |

| log P | Compound | chromatographic logP |
| --- | --- | --- |
| 3.30 | O=C(Nc1ccn(-c2ncc(C(F)(F)F)cc2Cl)n1)c1ccccc1Cl [Compound I-1-561] | – |
| 2.19 | O=C(Nc1ccn(-c2ccccc2Cl)n1)c1cnccc1Cl [Compound I-1-381] | – |
| 2.36 | Cc1ccccc1C(=O)Nc1ccn(-c2ncc(F)cc2F)n1 [Compound I-1-499] | – |
| 2.46 | Cn1ncc(I)c1C(=O)Nc1ccn(-c2c(F)cccc2F)n1 [Compound I-1-324] | – |
| 2.77 | O=C(Nc1cnn(-c2cc(F)cnc2F)n1)c1ccccc1C(F)(F)F [Compound I-2-62] | – |
| 2.42 | CCn1ncc(Cl)c1C(=O)Nc1ccn(-c2ncc(F)cc2F)n1 [Compound I-1-526] | – |
| 2.34 | O=C(Nc1ccn(-c2ccccc2[N+](=O)[O-])n1)c1c(F)cccc1F [Compound I-1-417] | – |
| 4.87 | O=C(c1ccccc1Cl)N(C(=O)c1ccccc1Cl)c1nn(-c2ccccc2Br)nc1Cl [Compound I-2-30] | – |
| 2.56 | O=C(Nc1ccn(-c2ncc(F)cc2F)n1)c1c(F)cccc1I [Compound I-1-492] | – |
| 2.30 | CC1=C(C(=O)Nc2ccn(-c3c(F)cccc3F)n2)CCCO1 [Compound I-1-333] | – |
| 2.78 | O=C(Nc1ccn(-c2ncc(Cl)cc2F)n1)c1ccccc1Br [Compound I-1-589] | – |
| 3.40 | O=C(Nc1ccn(-c2nccc(-c3ccc(F)cc3)c2F)n1)c1ccccc1C(F)(F)F [Compound I-1-642] | – |
| 3.42 | CCCc1nn(C)c(C(=O)Nc2ccn(-c3ncc(F)cc3F)n2)c1Cl [Compound I-1-531] | – |
| 2.96 | O=C(Nc1ccn(-c2c(F)cccc2F)c1)c1occc1I [Compound I-3-6] | – |
| 2.13 | O=C(Nc1ccn(-c2ncc(F)cc2F)n1)c1cccnc1CC(F)(F)F [Compound I-1-457] | – |
| 2.86 | O=C(Nc1ccn(-c2c(F)cccc2F)n1)c1c(Cl)cccc1C(F)(F)F [Compound I-1-614] | – |
| 2.83 | COc1ccccc1-n1ccc(NC(=O)c2ccccc2I)n1 [Compound I-1-411] | – |
| 3.47 | CC(C)Cn1ncc(I)c1C(=O)Nc1ccn(-c2c(F)cccc2F)n1 [Compound I-1-323] | – |
| 2.45 | N#Cc1c(F)cccc1-n1ccc(NC(=O)c2c(F)cccc2F)n1 [Compound I-1-619] | – |
| 2.42 | O=C(Nc1ccn(-c2ncccc2Br)n1)c1ccccc1I [Compound I-1-554] | – |
| 2.80 | Cc1cn(-c2ccccc2Cl)nc1NC(=O)c1ccccc1Cl [Compound I-1-360] | – |
